Test results taken from publication PMC9814779, “A triple farnesoid X receptor and peroxisome proliferator-activated receptor α/δ activator reverses hepatic fibrosis in diet-induced NASH in mice” (Communications Chemistry, 2020).

What was measured:
[1] = test system: DIO NASH; details: cited from earlier work
[2] = molecular target: T1, human PPARα ligand-binding domain (Gal4 chimera) (Homo sapiens, UniProt Q07869); assay: Gal4 hybrid reporter gene assay, PPARα; assay type: cell-based; parameters: Emax: dose or concentration left out as unconfirmed
T1 construct: coding for the hinge region and LBD of the canonical isoform of the respective nuclear receptor; expressed in transfected cells; host or cells: HEK293T
T1 sequence (Q07869 239-466 limits assumed): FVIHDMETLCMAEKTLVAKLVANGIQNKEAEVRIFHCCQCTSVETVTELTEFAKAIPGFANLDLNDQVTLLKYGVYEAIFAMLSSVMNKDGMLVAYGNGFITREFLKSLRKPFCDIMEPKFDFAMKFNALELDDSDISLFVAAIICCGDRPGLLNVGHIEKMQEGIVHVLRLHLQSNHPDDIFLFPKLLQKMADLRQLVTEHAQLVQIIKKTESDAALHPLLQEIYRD

[3] = test system: nuclear receptors related to PPARs and FXR (LXRα/β, RXRα/β/γ, RARα/β/γ, VDR, CAR); assay: Selectivity screening among nuclear receptors (Gal4 hybrid reporter gene assays); assay type: cell-based, human; details: three independent experiments
Text: For the hybrid reporter gene assays, the previously reported Gal4-fusion receptor plasmids pFA-CMV-hPPARα-LBD[29], pFA-CMV-hPPARδ-LBD[29], pFA-CMV-hPPARγ-LBD[29], pFA-CMV-hLXRα-LBD[30], pFA-CMV-hLXRβ-LBD[30], pFA-CMV-hRXRα-LBD[31], pFA-CMV-hRXRβ-LBD[31], pFA-CMV-hRXRγ-LBD[31], pFA-CMV-hRARα-LBD[31], pFA-CMV-hRARβ-LBD[31], pFA-CMV-hRARγ-LBD[31], pFA-CMV-hVDR-LBD[31], and pFA-CMV-hCAR-LBD[31] coding for the hinge region and LBD of the canonical isoform of the respective nuclear receptor were used. pFR-Luc (Stratagene) was used as reporter plasmid for Gal4 hybrid reporter gene assays. pcDNA3-hFXR[32] and pSG5-hRXR[33] served for receptor overexpression in the full-length FXR assay and pGL3basic (Promega Corporation, Fitchburg, WI, USA) with a shortened construct of the BSEP promoter cloned into the SacI/NheI cleavage site in front of the luciferase gene[34] was used as reporter. PPRE-pGL3[35] contains the human full-length PPRE (cloned into the SacI/NheI cleavage site in front of the luciferase gene) and was used as reporter plasmid for the full-length PPRE reporter gene assay. pRL-SV40 (Promega) was used in all assays for normalization of transfection efficiency and cell growth.
Before transfection, medium was changed to Opti-MEM without supplements. […] Luminescence was measured with a Spark 10 M luminometer (Tecan Deutschland GmbH). […]

Structure (SMILES)	effects in DIO NASH [1]	EC50 ([2]; EC50 [μM] PPARα, HEK293T, mean ± SEM, n = 3) [µM]	EC50 ([2]; PPARα EC50, as stated in text) [µM]	Emax ([2]; read-out: max. rel. act. PPARα) [%]	selectivity among nuclear receptors related to PPARs and FXR [3]
CC[C@H]1[C@@H](O)[C@@H]2[C@H](CC[C@]3(C)[C@@H]([C@H](C)CCC(=O)O)CC[C@@H]23)[C@@]2(C)CC[C@@H](O)C[C@@H]12 [OCA, 6α-ethylchenodeoxycholic acid, reference compound]	pronounced anti-steatotic activity and slight anti-fibrotic effects	–	–	–	–
CC(C)(C)c1ccc(C(=O)Nc2cccc(CCC(=O)O)c2)c(NC(=O)c2ccc(-c3ccco3)cc2)c1 [compound 41, 3-(3-[4-{tert-Butyl}-2-{4-(2-furyl)}benzamido]phenyl)propanoic acid]	–	0.17 ± 0.04	0.168	72	no off-target liability
